{"source": "patent US20110171291A1", "about": "“PATHOLOGICALLY-ACTIVATED THERAPEUTICS” (Sanford-Burnham Medical Research Institute, priority 2010, published 2011)", "key": {"[1]": {"tested_on": "AMPA/KA-type glutamate receptor", "experiment": "Primary screen of the LOPAC 1280 library: Fluo-4 NW calcium entry induced by kainate in cultured cerebrocortical neurons", "assay_type": "cell-based", "conditions": "three separate screens; 200 μM KA", "procedure": "FIGS. 19a and 19b show the fluorescence response indicating calcium ion entry induced by Kainate (KA) at AMPA-type glutamate receptor channels in cultured neurons. Fluorescent dye loading is accomplished by adding Fluo-4 NW to cells at 37° C. for 20 min and at RT (room temperature) for 10 min. The cells are incubated with compounds to be screened (generally 1 to 10 μM in 1% DMSO) for 2 min, followed by incubation with 200 μM kainate (KA) for 10 min (20 μM KA is used for the second, lower concentration of agonist—not shown here). […] The Z-factor, a statistical indication of the robustness of a high-throughput screen, fluctuated between 0.54-0.73 through the time course. This range of Z-factors is more than adequate for HTS (a value of Z≧0.5 generally indicates a robust screen).\nThe disclosed methods screen for uncompetitive drugs against a number of targets. […] Primary neurons or cell lines are used that contain (or are genetically engineered to contain) a target molecule on their surface, such as the AMPA/kainate-type glutamate receptors with unedited GluR2 subunits or other molecules that result in intracellular Ca^2+ signaling, such as G-protein-coupled receptors. […] Screening (by quantifying the Ca^2+ response) with two concentrations of agonist for the target, a low concentration and a higher concentration, against chemicals in the library administered at a single micromolar concentration. For these AMPA receptors, kainate can be used as the agonist for HTS because the responses are less desensitizing than those to AMPA. The agonist results in an increase in intracellular Ca^2+ that can be monitored by HTS using the Ca^2+ indicator dye fluo-4 NW.\nUsing cerebrocortical neurons and calcium-sensitive dyes, as described above, conditions have been optimized for screening for AMPA/Kainate-receptor antagonists. For this purpose, the following experimental parameters were varied: cell density, composition of culture medium, length of cultures, type of calcium-sensitive dye, and condition (temperature and length) of dye loading. The following protocol was established. […]"}, "[2]": {"tested_on": "NMDA receptor", "experiment": "Excitatory postsynaptic currents (EPSCs) recorded from the hippocampal autapse preparation", "assay_type": "cell-based", "conditions": "1 μM", "excerpt": "Note that the initial component of the EPSC is mediated by AMPA-sensitive glutamate receptors, whereas a delayed component is mediated by NMDA receptors. […] See Chen, H.-S. V. et al. Neuroscience 86, 1121-1132 (1998)."}, "[3]": {"tested_on": "brain damage after the ischaemic event", "conditions": "given up to 2 hours after the ischaemic event; cited from earlier work"}, "[4]": {"tested_on": "rhodanese", "experiment": "PDI chaperone activity: aggregation of guanidinium-denatured rhodanese", "assay_type": "biochemical", "conditions": "1 μM recombinant PDI", "procedure": "To determine whether S-nitrosylation affects PDI function, PDI chaperone and isomerase activities were monitored. Chaperone activity was assessed in a standard assay by measuring the degree of aggregation of rhodanese induced by guanidinium, as previously described9. Rhodanese aggregation occurred in a time-dependent manner, and incubation with recombinant wild-type PDI, but not dominantnegative PDI (produced by the N-terminal and C-terminal mutant) (Ko, H. S., et al. J. Biol. Chem., 277, 35386-35392, (2002)), suppressed this aggregation by about 80%. […] Thus, S-nitrosylation inhibited the functional activities of PDI. […] Therefore, the inhibitory effect of PDI on the aggregation of synphilin-1 was investigated, as observed in Lewy body inclusions in the brains of PD patients. First, it was tested if PDI could prevent the ubiquitinated, Lewy-body-like inclusions that are formed in the cytosol after synphilin-1 overexpression in cultured SH-SY5Y cells (See FIG. 2c). […]\nChaperone activity of PDI was measured by analyzing the renaturation (refolding) of denatured rhodanese in the presence of 1 μM PDI or its mutant form (Vuori, K., et al. J. Biol. Chem, 267, 7211-7214, (1992); Horibe, T. et al. J. Biol. Chem. 279, 4604-4611 (2004); Martin, J. et al. Nature 352, 36-42 (1991)). […] The aggregation of denatured rhodanese was monitored by the increase in absorbance at 320 nm. […]"}}, "data": [{"compound": "N#Cc1cc2[nH]c(=O)c(=O)[nH]c2cc1[N+](=O)[O-]", "note": "[CNQX]", "values": [{"measurement": "scored as hit (significantly blocked calcium entry induced by KA)", "setting": "[1]", "value": "positively scored"}]}, {"compound": "O=[N+]([O-])c1cc2nc(O)c(O)nc2cc1[N+](=O)[O-]", "note": "[DNQX]", "values": [{"measurement": "scored as hit (significantly blocked calcium entry induced by KA)", "setting": "[1]", "value": "scored positively in all three screens"}]}, {"compound": "C[C@]12N[C@H](Cc3ccccc31)c1ccccc12", "note": "[MK-801, dizocilpine]", "values": [{"measurement": "block of the NMDA receptor-mediated component of the EPSC", "setting": "[2]", "value": "complete blockade"}]}, {"compound": "NS(=O)(=O)c1cccc2c1c([N+](=O)[O-])cc1nc(O)c(O)nc12", "note": "[NBQX]", "values": [{"measurement": "scored as hit (significantly blocked calcium entry induced by KA)", "setting": "[1]", "value": "scored positively in all three screens"}]}, {"compound": "CC12CC3CC(C)(C1)CC(N)(C3)C2", "note": "[memantine]", "values": [{"measurement": "reduction of brain damage", "setting": "[3]", "value": "approximately 50%"}, {"measurement": "block of the NMDA receptor-mediated component of the EPSC", "setting": "[2]", "value": "10-15%"}]}, {"compound": "wild-type PDI: recombinant wild-type protein-disulphide isomerase", "values": [{"measurement": "suppression of rhodanese aggregation", "setting": "[4]", "value": "about 80%"}]}]}
